Experimental data reported in patent publication US10035790B2, “RORγ modulators” (BRISTOL-MYERS SQUIBB COMPANY, priority 2012, dated 2018).

Target: T1, ligand binding domain of human RORγ (A262-S507) (Homo sapiens, UniProt P51449)
T1 construct: made in house; host or cells: E. coli
T1 sequence (P51449 262-507): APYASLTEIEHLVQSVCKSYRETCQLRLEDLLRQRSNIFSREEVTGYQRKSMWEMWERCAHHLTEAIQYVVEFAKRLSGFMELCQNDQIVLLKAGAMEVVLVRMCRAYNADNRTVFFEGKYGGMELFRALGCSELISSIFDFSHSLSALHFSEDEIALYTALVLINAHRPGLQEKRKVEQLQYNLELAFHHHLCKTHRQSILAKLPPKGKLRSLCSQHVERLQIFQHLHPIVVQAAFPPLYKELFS
Assay: General RORγ SPA binding assay (competition with [3H]25-hydroxycholesterol)
Conditions: RORγ SPA binding assay, inhibition of [3H]25-hydroxycholesterol binding; read-out: IC50
How it was run: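 Scintillation counts from copper His-tag SPA beads (4 mg/mL, 30 min) gave percent inhibition of radioligand binding, from which IC50 values are derived. The E. coli-expressed His-tagged domain (50 nM) is first exposed to compound for 15 min at room temperature in PBS containing 0.5% fatty acid free BSA.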

Q: `Cc1ncc(C(N)(COc2cccc(C(F)(F)F)n2)C(N)=O)c(C2CCN(C(=O)Nc3c(F)cccc3F)CC2)n1` (stereo not shown) [Compound N49, 4-{5-[1,2-Diamino-2-oxo-1-({[6-(trifluoromethyl)pyridin-2-yl]oxy}methyl)ethyl]-2-methylpyrimidin-4-yl}-N-(2,6-difluorophenyl)piperidine-1-carboxamide] was tested. Which IC50 did it give?
A: The IC50 was 176 nM.

Q: For `Cc1ncc(C2(C)CN(c3ccnc(C(F)(F)F)n3)C(=O)O2)c(C2CCN(C(=O)Cc3c(F)cccc3F)CC2)n1` (stereo not shown) [Compound N50, 5-(4-{1-[(2,6-Difluorophenyl)acetyl]piperidin-4-yl}-2-methylpyrimidin-5-yl)-5-methyl-3-[2-(trifluoromethyl)pyrimidin-4-yl]-1,3-oxazolidin-2-one], which IC50 is on record?
A: The IC50 was 290 nM.

Q: Which IC50 does the source give for `Cc1ncc(C2(COc3cccc(C(F)(F)F)n3)CCO2)c(C2CCN(C(=O)Nc3c(F)cccc3F)CC2)n1` (stereo not shown) [Compound N51, N-(2,6-Difluorophenyl)-4-{2-methyl-5-[2-({[6-(trifluoromethyl)pyridin-2-yl]oxy}methyl)oxetan-2-yl]pyrimidin-4-yl}piperidine-1-carboxamide] here?
A: Its IC50 is 4.9 nM.

Q: Which IC50 does the source give for `Cc1ncc(C2(COc3cccc(C(F)(F)F)n3)CNC(=O)O2)c(C2CCN(C(=O)Nc3c(F)cccc3F)CC2)n1` (stereo not shown) [Compound N52, N-(2,6-Difluorophenyl)-4-{2-methyl-5-[2-oxo-5-({[6-(trifluoromethyl)pyridin-2-yl]oxy}methyl)-1,3-oxazolidin-5-yl]pyrimidin-4-yl}piperidine-1-carboxamide] here?
A: The IC50 was 13.8 nM.
